Like-named read-outs stand apart in the source and are kept apart here.
Tested on: human myeloma cell lines (HMCLs)
Test: In vitro chemosensitivity (cytotoxicity) assay, CellTiter-Glo luminescent cell viability, panel of 50 HMCLs
Format: cell-based
Details: for IC50: single agent, viability 48 hours post treatment; for AUSC (area under the survival curve), Maximum / AUSC (area under the survival curve), Mean / AUSC (area under the survival curve), Median / AUSC (area under the survival curve), Minimum: trapezoidal rule, 48 hours post treatment
Description: Fifty (50) HMCLs were procured from various institutions, established and characterized, and maintained in Human Myeloma Cell Line (HMCL) media with IL-6 (Mitra et al., 2016). Table 1A provides the cytogenetic characteristics of the […] cytotoxicity assays were performed on the HMCLs to create a drug sensitivity profile in response to treatment with increasing concentrations of Bz, Cz, Ix and Opz as single agents and half-maximal inhibitory concentration/IC50 values and area under the survival curve/AUSC were calculated as described in Mitra et al. (2016). Briefly, cells were counted using Countess automated cell counter (Invitrogen) and seeded in 96-well plates at a concentration of 4×10^5 cells per mL. After 24 hours, cells were treated with increasing concentrations of Bz, Cz, Ix and Opz as single agents. […] Percent survival values were normalized to untreated controls and half-maximal inhibitory concentration/IC50 values were determined by calculating the nonlinear regression using sigmoidal dose-response equation (variable slope). Area under the survival curve/AUSC was calculated using trapezoidal rule and log2-transformed for further statistical analysis (Mitra et al., 2016). Caspase3/7 activity were evaluated using Caspase-Glo®3/7 Assay kit (Promega) on Synergy 2 Microplate Reader.

[1] = Homo sapiens, maximum across panel of 50 HMCLs, read-out: IC50, Maximum
[2] = Homo sapiens, mean across panel of 50 HMCLs, read-out: IC50, Mean
[3] = Homo sapiens, median across panel of 50 HMCLs, read-out: IC50, Median
[4] = Homo sapiens, minimum across panel of 50 HMCLs, read-out: IC50, Minimum
[5] = maximum across panel of 50 HMCLs
[6] = median across panel of 50 HMCLs
[7] = minimum across panel of 50 HMCLs

| Structure (SMILES) | IC50 [1] [nM] | IC50 [2] [nM] | IC50 [3] [nM] | IC50 [4] [nM] | AUSC (area under the survival curve), Maximum [5] [µM] | AUSC (area under the survival curve), Mean (mean across panel of 50 HMCLs) [µM] | AUSC (area under the survival curve), Median [6] [nM] | AUSC (area under the survival curve), Minimum [7] [nM] | IC50 (maximum across panel of 50 HMCLs, read-out: IC50, Maximum) [nM] | IC50 (mean across panel of 50 HMCLs, read-out: IC50, Mean) [nM] | IC50 (median across panel of 50 HMCLs, read-out: IC50, Median) [nM] | IC50 (minimum across panel of 50 HMCLs, read-out: IC50, Minimum) [nM] |
| --- | --- | --- | --- | --- | --- | --- | --- | --- | --- | --- | --- | --- |
| CC(C)C[C@H](NC(=O)[C@H](CCc1ccccc1)NC(=O)CN1CCOCC1)C(=O)N[C@@H](Cc1ccccc1)C(=O)N[C@@H](CC(C)C)C(=O)[C@@]1(C)CO1 [Carfilzomib] | 55.3 | 10.9 | 7.1 | 0.7 | 19.097 | 3.5034 | 1448.5 | 375.5 | – | – | – | – |
| CC(C)C[C@H](NC(=O)[C@H](Cc1ccccc1)NC(=O)c1cnccn1)B(O)O [Bortezomib] | 124 | 17.1 | 11.7 | 2.8 | 38.974 | 2.7001 | 1524.0 | 319.6 | – | – | – | – |
| COC[C@H](NC(=O)c1cnc(C)s1)C(=O)N[C@@H](COC)C(=O)N[C@@H](Cc1ccccc1)C(=O)[C@@]1(C)CO1 [Oprozomib] | 776 | 45.8 | 23.7 | 7.6 | 59.917 | 5.017 | 2885.0 | 1050.0 | – | – | – | – |
| CC(C)C[C@H](NC(=O)CNC(=O)c1cc(Cl)ccc1Cl)B(O)O [Ixazomib] | – | – | – | – | 46.494 | 10.03 | 6456.0 | 1702.0 | 4760 | 155 | 42.1 | 15.1 |

Source: patent US20170159130A1, “TRANSCRIPTIONAL CLASSIFICATION AND PREDICTION OF DRUG RESPONSE (T-CAP DR)” (priority 2015, published 2017)
